Measured values reported in patent publication US4888345A, “4,8-disubstituted-1,2-dihydro and 1,2,3,4-tetrahydroimidazo-[1,5-a] pyrimidines” (American Cyanamid Company, priority 1988, dated 1989).

Test system: Spontaneously Hypertensive Rats
Assay: Hypotensive activity: reduction of mean arterial blood pressure in spontaneously hypertensive rats (method of Chan and Poorvin)
Type: in vivo
Details: gavage, two doses of 100 mg/kg or less 24 hours apart; measured 28 hours after initial dose; average MABP of the rats used 160±1.5 mm Hg
Method: Certain of the novel compounds of the present invention are active hypotensive agents at nontoxic doses when administered to mammals. These compounds were tested for hypotensive activity by the method of P. S. Chan and D. Poorvin, Clinical and Experimental Hypertension, 1(6), 817-830 (1979). Male, 16 week old, spontaneously hypertensive rats of the Okamoto strain having an average mean arterial blood pressure of 160±1.5 mm of mercury are used in the test. One to 3 rats are used per test compound. A rat is dosed by gavage with a test compound, suspended in 2% pre-boiled starch at a concentration of 50 mg/ml, at a dose of 100 mg/kg of body weight or less, with 0.9% sodium chloride loading at a dose of 25 ml/kg of body weight. A second identical dose of the test compound, without sodium chloride loading is given 24 hours later. At 28 hours after the initial dose the mean arterial blood pressure is measured by the method of Chan and Poorvin vide supra. The procedure is repeated in a second and third rat when necessary.

Structure (SMILES) | MABP/mm Hg (mean arterial blood pressure after dosing)
NC(=O)c1ncn2c1NCC=C2c1cccc(C(F)(F)F)c1 [Example 26, 1,2-Dihydro-4-[3-(trifluoromethyl)phenyl]imidazo-[1,5-a]pyrimidine-8-carboxamide] | 111 mm Hg
NC(=O)c1ncn2c1NCC=C2c1cccc(Cl)c1 [Example 27, 4-(3-Chlorophenyl)-1,2-dihydroimidazo[1,5-a]-pyrimidine-8-carboxamide] | 132 mm Hg
NC(=O)c1ncn2c1NCC=C2c1cc(Cl)ccc1Cl [Example 28, 4-(2,5-Dichlorophenyl)-1,2-dihydroimidazo[1,5-a]-pyrimidine-8-carboxamide] | 106 mm Hg
NC(=O)c1ncn2c1NCC=C2c1ccccc1 [Example 29, 1,2-Dihydro-4-phenylimidazo[1,5-a]-pyrimidine-8-carboxamide] | 121 mm Hg
NC(=O)c1ncn2c1NCC=C2c1cccc([N+](=O)[O-])c1 [Example 35, 1,2-Dihydro-4-(3-nitrophenyl)imidazo-[1,5-a]pyrimidine-8-carboxamide] | 139 mm Hg
NC(=O)c1ncn2c1NCC=C2c1cccnc1 [Example 37, 1,2-Dihydro-4-(3-pyridinyl)imidazo-[1,5-a]pyrimidine-8-carboxamide] | 138 mm Hg

Test system: Brain-Specific Receptors of Rats (3H-benzodiazepine binding)
Assay: Inhibition of the binding of 3H-benzodiazepine to brain-specific receptors of rats (antianxiety)
Set-up: species or system rat (Wistar strain)
Details: rat cortex P2-synaptosomal fraction; 3H-diazepam (1.5 nM) or 3H-flunitrazepam (1.0 nM); 30 minutes in ice, pH 7.4; test concentration not given
Description: The antianxiety properties of certain of the novel compounds of the present invention have been establish in a test which measures the ability of a test compound to inhibit the binding of tritiated benzodiazepines to brain-specific receptors of mammals. A modification of the method described by R. F. Squires, et al., Nature, 266, No. 21, pg 732 (April 1977) and H. Mohler, et al., Science, 198:849 (1977) was employed.
Male albino rats (Wistar strain, weighing 150 g 200 g each) were used. The test compounds were solubilized in dimethylformamide, acetic acid, ethanol or hydrochloric acid.
Whole cortex of rats was homogenized gently in 20 volumes of ice-cold 0.32 M sucrose, centrifuged twice at 1000 g for 10 minutes and then recentrifuged at 30,000 g for 20 minutes to produce a crude P2 -synaptosomal fraction. […]
The binding assay consisted of 300 μl of the P2 -fraction suspension (0.2-0.4 mg protein), 100 μl of test drug and 100 μl of ^3 H-diazepam (1.5 nM, final concentration) or ^3 H-flunitrazepam (1.0 nM, final concentration) which was added to 1.5 ml of 50 mM Tris.HCl (pH 7.4). […] After drying at 50°-60° C. for 30 minutes, 10 ml of diluent was added and the radioactivity determined in a scintillation counter.
Inhibition of binding was calculated by the difference between total binding and binding in the presence of test compound, divided by the total binding, ×100. […]

Structure (SMILES) | % Inhibition of 3H-benzodiazepine binding
COc1cccc(C2=CCNc3c(C(N)=O)ncn32)c1 [Example 30, 1,2-Dihydro-4-(3-methoxyphenyl)-imidazo[1,5-a]pyrimidine-8-carboxamide] | 27%
NC(=O)c1ncn2c1NCC=C2c1ccc(N2CCOCC2)cc1 [Example 38, 1,2-Dihydro-4-[4-(4-morpholinyl)-phenyl]imidazo[1,5-a]pyrimidine-8-carboxamide] | 29%
